Data taken from the supplement of paper PMC11061612.

Assays:
Test in all cases: combination Emax (second highest fraction inhibited in the dose matrix, 72 h); higher = more inhibition; extreme values may be limits of the assay
[1] = test system: MDST8 (Colorectal Carcinoma)
Method in brief: (§1)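 Cell lines in DMEM/F12 or RPMI with 10% FBS were plated in 1536-well plates, held 24 hours at 37°C, 5% CO2, then given two-drug dose matrices for 72 hours (DMSO typically 0.2%). Viability was read by CellTiter-Glo 2.0 luminescence and scaled as inhibition from 0 (vehicle wells) to 1 (blank wells). Combination Emax is the second-highest inhibition in the matrix; Bliss excess is observed combination effect minus expected EA + EB − EA·EB, EA and EB being single-agent effects.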

[2] = test system: PANC-10-05 (Pancreatic Carcinoma)
Method in brief: as §1

[3] = test system: A3-KAW (B-Cell Non-Hodgkin's Lymphoma)
Method in brief: as §1

[4] = test system: NCI-H1666 (Lung Adenocarcinoma)
Method in brief: as §1

[5] = test system: SK-MG-1 (Low Grade Glioma)
Method in brief: as §1

[6] = test system: CCK-81 (Colorectal Carcinoma)
Method in brief: as §1

Hs-445 (Non-Cancerous) = test system: Hs-445 (Non-Cancerous)
Method in brief: as §1

[7] = test system: CAL-29 (Bladder Carcinoma)
Method in brief: as §1

[8] = test system: NCI-H1581 (Non-Small Cell Lung Carcinoma)
Method in brief: as §1

ARH-77 (Non-Cancerous) = test system: ARH-77 (Non-Cancerous)
Method in brief: as §1

NCI-H2591 (Mesothelioma) = test system: NCI-H2591 (Mesothelioma)
Method in brief: as §1

NY (Osteosarcoma) = test system: NY (Osteosarcoma)
Method in brief: as §1

A498 (Kidney Carcinoma) = test system: A498 (Kidney Carcinoma)
Method in brief: as §1

IGR-37 (Melanoma) = test system: IGR-37 (Melanoma)
Method in brief: as §1

GI-ME-N (Neuroblastoma) = test system: GI-ME-N (Neuroblastoma)
Method in brief: as §1

[9] = test system: COLO-824 (Breast Carcinoma)
Method in brief: as §1

[10] = test system: JSC-1 (B-Cell Non-Hodgkin's Lymphoma)
Method in brief: as §1

8-MG-BA (Glioblastoma) = test system: 8-MG-BA (Glioblastoma)
Method in brief: as §1

[11] = test system: TT (Thyroid Gland Carcinoma)
Method in brief: as §1

[12] = test system: VCaP (Prostate Carcinoma)
Method in brief: as §1

| SMILES | combination Emax [1] | combination Emax [2] | combination Emax [3] | combination Emax [4] | combination Emax [5] | combination Emax [6] | combination Emax (Hs-445 (Non-Cancerous)) | combination Emax [7] | combination Emax [8] | combination Emax (ARH-77 (Non-Cancerous)) | combination Emax (NCI-H2591 (Mesothelioma)) | combination Emax (NY (Osteosarcoma)) | combination Emax (A498 (Kidney Carcinoma)) | combination Emax (IGR-37 (Melanoma)) | combination Emax (GI-ME-N (Neuroblastoma)) | combination Emax [9] | combination Emax [10] | combination Emax (8-MG-BA (Glioblastoma)) | combination Emax [11] | combination Emax [12] |
| --- | --- | --- | --- | --- | --- | --- | --- | --- | --- | --- | --- | --- | --- | --- | --- | --- | --- | --- | --- | --- |
| C[C@@H](c1ccc2nccn2c1)n1nnc2ncc(-c3cnn(C)c3)nc21 [Savolitinib] + Cc1c2c(nn1C)CSCc1cc(n(C)n1)CSc1cc(c3ccccc3c1)OCCCc1c(C(=O)O)n(C)c3c-2c(Cl)ccc13 [AZD5991] (first compound max 1 µM, 7x7, partner max 1 µM) | 0.159 | 0.153 | 1 | 0.178 | 0.124 | 0.678 | 0.211 | 0.186 | 0.951 | 0.245 | 0.216 | 0.442 | 0.212 | 0.279 | 0.245 | 0.356 | 1 | 0.595 | 0.244 | 0.946 |
| Cn1cnc2c(F)c(Nc3ccc(Br)cc3Cl)c(C(=O)NOCCO)cc21 [Selumetinib] + C=CCn1c(=O)c2cnc(Nc3ccc(N4CCN(C)CC4)cc3)nc2n1-c1cccc(C(C)(C)O)n1 [AZD1775] (first compound max 10 µM, partner max 1 µM) | 0.609 | 0.546 | 0.953 | 0.538 | 0.449 | 0.885 | 0.689 | 0.654 | 0.639 | 0.979 | 0.309 | 0.527 | 0.408 | 0.878 | 0.209 | 0.76 | 0.945 | 0.797 | 0.305 | 0.509 |
| Cn1cnc2c(F)c(Nc3ccc(Br)cc3Cl)c(C(=O)NOCCO)cc21 [Selumetinib] + CC(C)n1c(=O)n(C)c2cnc3cc(F)c(-c4ccc(OCCCN5CCCCC5)nc4)cc3c21 [AZD1390] (first compound max 10 µM, 7x7, partner max 0.3 µM) | 0.537 | 0.402 | 0.408 | 0.529 | 0.185 | 0.379 | 0.288 | 0.216 | 0.455 | 0.318 | 0.199 | 0.181 | 0.318 | 0.76 | 0.178 | 0.302 | 0.584 | 0.116 | 0.201 | 0.0626 |
| Cn1cnc2c(F)c(Nc3ccc(Br)cc3Cl)c(C(=O)NOCCO)cc21 [Selumetinib] + CCN(CCO)CCCOc1ccc2c(Nc3cc(CC(=O)Nc4cccc(F)c4)[nH]n3)ncnc2c1 [AZD2811] (first compound max 10 µM, 7x7, partner max 1 µM) | 0.63 | 0.464 | 0.597 | 0.506 | 0.288 | 0.372 | 0.414 | 0.389 | 0.487 | 0.369 | 0.29 | 0.247 | 0.383 | 0.774 | 0.213 | 0.825 | 0.682 | 0.286 | 0.453 | 0.211 |
| Cn1cnc2c(F)c(Nc3ccc(Br)cc3Cl)c(C(=O)NOCCO)cc21 [Selumetinib] + C[C@@H]1COCCN1C2=NC(=NC(=C2)C3(CC3)[S@](=N)(=O)C)C4=C5C=CNC5=NC=C4 [AZD6738] (first compound max 10 µM, 7x7, partner max 10 µM) | 0.784 | 0.613 | 1 | 0.516 | 0.387 | 0.923 | 0.755 | 0.696 | 0.545 | 0.946 | 0.339 | 0.617 | 0.57 | 0.864 | 0.312 | 0.718 | 0.957 | 0.792 | 0.316 | 0.303 |
| CC(=O)Nc1cccc(-n2c(=O)n(C3CC3)c(=O)c3c(Nc4ccc(I)cc4F)n(C)c(=O)c(C)c32)c1 [Trametinib] + Cc1nc(-c2cn3c(n2)-c2ccc(-c4cnn(C(C)(C)C(N)=O)c4)cc2OCC3)n(C(C)C)n1 [Taselisib] (first compound max 1 µM, 7x7, partner max 10 µM) | 0.865 | 0.838 | 0.726 | 0.988 | 0.85 | 0.98 | 0.611 | 0.956 | 0.586 | 0.776 | 0.543 | 0.747 | 0.861 | 1 | 0.77 | 0.976 | 0.631 | 0.863 | 0.666 | 0.47 |
| CC1(C)CCC(CN2CCN(c3ccc(C(=O)NS(=O)(=O)c4ccc(NCC5CCOCC5)c([N+](=O)[O-])c4)c(Oc4cnc5[nH]ccc5c4)c3)CC2)=C(c2ccc(Cl)cc2)C1 [Venetoclax] + C1CN(CCC1(C(=O)N[C@@H](CCO)C2=CC=C(C=C2)Cl)N)C3=NC=NC4=C3C=CN4 [Capivasertib] (first compound max 1 µM, 7x7, partner max 3 µM) | 0.317 | 0.273 | 0.282 | 0.287 | 0.437 | 0.156 | 0.751 | 0.277 | 0.0621 | 0.7 | 0.174 | 0.583 | 0.537 | 0.556 | 0.24 | 0.881 | 0.161 | 0.26 | 0.681 | 0.398 |
| CC1(C)CCC(CN2CCN(c3ccc(C(=O)NS(=O)(=O)c4ccc(NCC5CCOCC5)c([N+](=O)[O-])c4)c(Oc4cnc5[nH]ccc5c4)c3)CC2)=C(c2ccc(Cl)cc2)C1 [Venetoclax] + C=CCn1c(=O)c2cnc(Nc3ccc(N4CCN(C)CC4)cc3)nc2n1-c1cccc(C(C)(C)O)n1 [AZD1775] (first compound max 1 µM, partner max 1 µM) | 0.378 | 0.486 | 0.937 | 0.343 | 0.625 | 0.784 | 0.99 | 0.483 | 0.32 | 0.997 | 0.279 | 0.741 | 0.452 | 0.852 | 0.272 | 0.967 | 0.888 | 0.755 | 0.673 | 0.668 |
| CC1(C)CCC(CN2CCN(c3ccc(C(=O)NS(=O)(=O)c4ccc(NCC5CCOCC5)c([N+](=O)[O-])c4)c(Oc4cnc5[nH]ccc5c4)c3)CC2)=C(c2ccc(Cl)cc2)C1 [Venetoclax] + CCN(CCO)CCCOc1ccc2c(Nc3cc(CC(=O)Nc4cccc(F)c4)[nH]n3)ncnc2c1 [AZD2811] (first compound max 1 µM, 7x7, partner max 1 µM) | 0.306 | 0.288 | 0.286 | 0.265 | 0.464 | 0.199 | 0.68 | 0.264 | 0.266 | 0.703 | 0.196 | 0.616 | 0.216 | 0.537 | 0.186 | 1 | 0.332 | 0.245 | 0.652 | 0.226 |
| CC1(C)CCC(CN2CCN(c3ccc(C(=O)NS(=O)(=O)c4ccc(NCC5CCOCC5)c([N+](=O)[O-])c4)c(Oc4cnc5[nH]ccc5c4)c3)CC2)=C(c2ccc(Cl)cc2)C1 [Venetoclax] + CN(C)CCCOc1ccc(-c2ccc3ncc4c(c3c2)n(C2CCOCC2)c(=O)n4C)cn1 [AZD0156] (first compound max 1 µM, 7x7, partner max 1 µM) | 0.199 | 0.229 | 0.288 | 0.225 | 0.275 | 0.244 | 0.221 | 0.25 | 0.182 | 0.297 | 0.161 | 0.551 | 0.263 | 0.503 | 0.226 | 0.783 | 0.141 | 0.171 | 0.594 | 0.196 |
| CC1(C)CCC(CN2CCN(c3ccc(C(=O)NS(=O)(=O)c4ccc(NCC5CCOCC5)c([N+](=O)[O-])c4)c(Oc4cnc5[nH]ccc5c4)c3)CC2)=C(c2ccc(Cl)cc2)C1 [Venetoclax] + COc1cc(Nc2ncc3c(n2)-c2ccc(Cl)cc2C(c2c(F)cccc2OC)=NC3)ccc1C(=O)O [Alisertib] (first compound max 1 µM, 7x7, partner max 10 µM) | 0.329 | 0.302 | 0.759 | 0.501 | 0.365 | 0.318 | 0.857 | 0.364 | 0.698 | 0.932 | 0.298 | 0.654 | 0.386 | 0.486 | 0.327 | 1 | 0.377 | 0.447 | 0.573 | 0.305 |
| CC1(C)CCC(CN2CCN(c3ccc(C(=O)NS(=O)(=O)c4ccc(NCC5CCOCC5)c([N+](=O)[O-])c4)c(Oc4cnc5[nH]ccc5c4)c3)CC2)=C(c2ccc(Cl)cc2)C1 [Venetoclax] + C[C@@H]1COCCN1C2=NC(=NC(=C2)C3(CC3)[S@](=N)(=O)C)C4=C5C=CNC5=NC=C4 [AZD6738] (first compound max 1 µM, 7x7, partner max 10 µM) | 0.777 | 0.53 | 1 | 0.424 | 0.535 | 0.846 | 0.99 | 0.689 | 0.451 | 0.961 | 0.329 | 0.708 | 0.514 | 0.793 | 0.459 | 0.944 | 0.882 | 0.792 | 0.702 | 0.428 |
